Laboratory results reported in patent publication US12692274B2, “Tetrahydroisoquinoline derivatives for the treatment of red blood disorders and inflammatory diseases” (Sanofi, priority 2020, dated 2026).
“And” between values parts separate entries of the source, which are not always exact repeats. Identical values can stand only once.

What was measured:
[1] = system: NQO1 activation in BEAS-2B cells; test: BEAS-2B cellular MTT assay of NQO1 activation, 0.3% HSA; assay type: cell-based
Description: (§1) The growth rate of the BEAS-2B cells changed based on the lot of BEGM SingleQuots in the BEGM media. The cell growth rate was determined for each lot of SingleQuots. Ideally, cells were thawed into media with the new lot of SingleQuots and grown for two passages before testing; however, growing an active culture in the new lot of media for two to three passages before testing was also acceptable. Until the cell growth rate was determined, cells were seeded at different densities (cells/cm^2) in multiple tissue culture flasks in order to avoid the cells becoming more than 70% confluent. Cells should not go above 70% confluent as the cells differentiate when they become confluent. After the cells were grown in the new lot of media as described above, the number of cells per well needed to seed in the collagen plates was determined by seeding different numbers of cells per well and incubating for 48 hours. Cell confluency was checked after 48 hours and a cell number that results in just below to just above confluency was chosen for future plate seeding. Cell confluency in the assay plate was 95-100% confluent after 48 hours.
(§2) Cell media consists of BEBM basal media with the BEGM SingleQuots added. SingleQuots vials were thawed in the tissue culture hood, and GA-1000 (Gentamicin-Amphotericin) was not added.
(§3) If complete media was to be used immediately, BEBM basal media was warmed to room temperature in the hood, but not as high as 37° C. When the media was made for future use, SingleQuots were added to cold BEBM. One at a time, the SingleQuots components (except GA-1000) were added to the BEBM media. After removal of each component from the vial, the vial was rinsed with 0.5-1 mL of BEBM (depending on the volume the vial could hold) and added to the bottle of BEBM. Once all components were added, the label that comes with the SingleQuots kit was put on the bottle of media and the date was recorded. The bottle of media was mixed by gentle shaking. The media was not filtered. This media was stored at 4° C., with any leftover media disposed of one month after the date the SingleQuots were added.
(§4) BEAS-2B Cell Splitting Protocol:
(§5) First, Trypsin was warmed to 37° C. in the water bath. The media was then warmed to room temperature by letting it sit in the tissue culture hood, but not as high as 37° C. The media was aspirated from flask(s) and the flask(s) were washed with PBS. From 1 to 1.5 mL of warm trypsin were added to each flask and incubated at 37° C. until cells came off the flask on their own (~8-10 minutes), with no vigorous tapping on the flask to detach the cells.
(§6) Media was added to each flask to a total volume of 8-10 mL per flask and transferred to 15 mL conical tube(s). The cells were spun down at 120 g for 5 minutes, level 5 brake. The cells can be spun down between 100 and 150 g. Next the media was aspirated and the cell pellet was resuspended in fresh media by pipetting up and down and flicking the tube side to side. Any clumps of cells that remained were allowed to settle to the bottom of the tube before the top suspension was transferred into another tube, leaving about 1 mL of media in the original tube. The 1 mL of media and cell clumps were mixed with a single channel p1000 pipette, and any remaining clumps were removed before adding the cells in suspension to the other tube. The suspension was mixed with a pipette, an aliquot was removed, and the cells were counted. The amount of cells/cm^2 desired was calculated and the required volume of cells was added to tissue culture flasks. For example, use of SingleQuots with ~6000 cells/cm^2 was appropriate for a three day incubation and ~3000 cells/cm^2 for a five day incubation. Optimal cell density differed depending on lot of SingleQuots. The flasks were incubated at 37° C. in 5% CO2.
(§7) Day One: Seeding BEAS-2B Cells in Collagen Plates:
(§8) Plate(s) were either seeded with 0.3% or 0% HSA. While the protocol was similar for both conditions any differences are noted herein below. […]

[2] = system: NQO1 activation in BEAS-2B cells; test: BEAS-2B cellular MTT assay of NQO1 activation, 0% HSA; assay type: cell-based
Description: as §1, §2, §3, §4, §5, §6, §7, §8

[3] = Homo sapiens, BEAS+, read-out: BEAS+ EC50
[4] = Homo sapiens, serum free, read-out: BEAS EC50 (nM) serum free
[5] = serum free, read-out: BEAS EC50 (nM) serum free
[6] = BEAS+ W, read-out: BEAS+ W EC50
[7] = Homo sapiens, BEAS+ W, read-out: BEAS+ W EC50
[8] = Homo sapiens, Serum Free W, read-out: BEAS EC50 (nM) Serum Free W
[9] = Serum Free W, read-out: BEAS EC50 (nM) Serum Free W

| Structure (SMILES) | EC50 ([1]; BEAS+, read-out: BEAS+ EC50) | EC50 [1, 3] | EC50 [2, 4] | EC50 [2, 5] | EC50 [1, 6] | EC50 [1, 7] | EC50 [2, 8] | EC50 [2, 9] |
| --- | --- | --- | --- | --- | --- | --- | --- | --- |
| Cc1cc2ccc1C(=O)N1CCc3ccc(cc3C1)[C@H](CC(=O)O)c1ccc3c(nnn3CCCCCC2)c1C [Compound 245] | 37.6 nM | 24.8 nM | 19.4 nM | 18.5 nM |  |  |  |  |
| Cc1cc2ccc1C(=O)N1CCc3ccc(cc3C1)C(CC(=O)O)c1ccc3c(nnn3CCCCCC2)c1C (centres unmarked) [Compound 295] |  | 0.7 nM | 0.2 nM |  |  |  |  |  |
| Cc1c2ccc3c1nnn3CCCCCc1ccc(cc1)C(=O)N1CCc3ccc(cc3C1)[C@@H]2[C@H](C)C(=O)O [Compound 116] |  |  |  |  | 252 nM | 212 nM | 130 nM | 84.8 nM |
| COc1cc2ccc1C(=O)N1CCc3ccc(cc3C1)[C@@H](CC(=O)O)c1ccc3c(nnn3CCCCCC2)c1C [Compound 109] |  |  |  |  | 100 nM | 172 nM | 32.1 nM | 38 nM |
| COc1cc2ccc1C(=O)N1CCc3ccc(cc3C1)[C@H](CC(=O)O)c1ccc3c(nnn3CCCCCC2)c1C [Compound 108] |  |  |  |  |  |  | 7.2 nM | 7.9 nM |
| Cc1cc2cnc1OCCCCCc1ccc(cc1)C(=O)N1CCc3ccc(cc3C1)[C@@H]2[C@H](C)C(=O)O [Compound 71] |  |  |  |  | 13.2 nM | 10.5 nM | 3.4 nM | 3.3 nM |
| Cc1c2ccc3c1nnn3CCCCCCc1ccc(cc1)C(=O)N1CCc3ccc(cc3C1)[C@@H]2[C@@H](C)C(=O)O (racemic) [Compound 201] | 0.5 nM and 0.2 nM |  |  | 0.3 nM and 0.1 nM |  |  |  |  |
| COc1cc2ncc1[C@H](CC(=O)O)c1ccc3c(c1)CN(CC3)C(=O)c1ccc(cc1)CCCCCO2 [Compound 79] |  |  |  |  | 2040 nM | 1720 nM | 733 nM | 810 nM |
| Cc1c2ccc3c1nnn3CCOCCCOc1ccc(c(F)c1)C(=O)N1CCc3ccc(cc3C1)C2CC(=O)O (centres unmarked) [Compound 382] | 136 nM | 169 nM | 86.2 nM | 125 nM |  |  |  |  |
| Cc1c2ccc3c1nnn3CCCCCCOc1ccc(c(F)c1)C(=O)N1CCc3ccc(cc3C1)[C@@H]2[C@@H](C)C(=O)O [Compound 181] | 6.6 nM | 5.3 nM | 3.6 nM | 3.4 nM |  |  |  |  |
| Cc1c2ccc3c1nnn3CCCCCc1ccc(cc1)C(=O)N1CCc3ccc(cc3C1)[C@@H]2[C@H](C)C(=O)O [Compound 160] | 13.2 nM | 12.4 nM | 9.4 nM | 7 nM |  |  |  |  |
| Cc1c2ccc3c1nnn3CCCCCCc1ccc(cc1)C(=O)N1CCc3ccc(cc3C1)[C@@H]2[C@@H](C)C(=O)O [Compound 176] | 0.2 nM | 0.1 nM | 0.5 nM | 0.8 nM |  |  |  |  |
| Cc1cc2ccc1C(=O)N1CCc3ccc(cc3C1)C(CC(=O)O)c1ccc3c(c1)nnn3CCCCCO2 (centres unmarked) [Compound 330] |  | 862 nM | 1070 nM |  |  |  |  |  |
| Cc1c2ccc3c1nnn3CCCCCCOc1ccc(c(F)c1)C(=O)N1CCc3ccc(cc3C1)[C@H]2CC(=O)O [Compound 255] | 289 nM | 288 nM | 4.8 nM | 4 nM |  |  |  |  |
| Cc1c2ccc3c1nnn3CCCCCCOc1ccc(c(F)c1)C(=O)N1CCc3ccc(cc3C1)[C@@H]2[C@H](C)C(=O)O [Compound 177] | 140 nM | 107 nM | 43.7 nM | 36.1 nM |  |  |  |  |
| O=C(O)CC1c2ccc3c(c2)CN(CC3)C(=O)c2ccc(cc2)OCCCCCCn2nnc3cc1ccc32 (centres unmarked) [Compound 329] |  | 1230 nM | 403 nM |  |  |  |  |  |
| Cc1cc2ncc1[C@@H]([C@@H](C)C(=O)O)c1ccc3c(c1)CN(CC3)C(=O)c1ccc(cc1)CCCCCO2 [Compound 82] |  |  |  |  | 1760 nM | 1960 nM | 594 nM | 641 nM |
| Cc1c2ccc3c1nnn3CCCCCCOc1ccc(c(F)c1)C(=O)N1CCc3ccc(cc3C1)[C@H]2[C@H](C)C(=O)O [Compound 156] | 171 nM | 201 nM | 55.9 nM | 44.3 nM |  |  |  |  |
